In paper PMC3391414 (Journal of Agricultural and Food Chemistry, 2011):
“Also recorded” adds a separate entry of the source. Where two headings read alike, the source gives them in different places.

How the values were obtained:
UGT1A1 [1] = target: T1, UGT1A1 (Homo sapiens, UniProt P22309); settings: 10 μM, pH 7.4
T1 sequence (P22309 26-533): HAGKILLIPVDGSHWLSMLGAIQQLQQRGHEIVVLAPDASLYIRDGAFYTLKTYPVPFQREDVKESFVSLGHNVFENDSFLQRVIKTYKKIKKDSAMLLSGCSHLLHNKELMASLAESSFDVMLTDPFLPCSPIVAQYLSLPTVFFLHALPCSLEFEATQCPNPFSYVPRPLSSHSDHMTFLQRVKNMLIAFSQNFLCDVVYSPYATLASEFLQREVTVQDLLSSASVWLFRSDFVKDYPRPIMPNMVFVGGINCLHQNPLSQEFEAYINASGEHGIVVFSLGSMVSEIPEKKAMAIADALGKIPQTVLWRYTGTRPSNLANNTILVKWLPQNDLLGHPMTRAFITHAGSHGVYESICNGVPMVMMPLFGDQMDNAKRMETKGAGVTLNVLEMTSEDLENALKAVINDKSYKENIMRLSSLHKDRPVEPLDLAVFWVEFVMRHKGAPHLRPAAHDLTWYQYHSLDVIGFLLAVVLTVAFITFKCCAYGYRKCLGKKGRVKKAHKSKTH

UGT2B7 = target: T2, UGT2B7 (Homo sapiens, UniProt P16662); test: Glucuronidation by recombinant human UGT2B7; settings: UGT2B7, substrate 10 μM
T2 sequence (P16662 24-529): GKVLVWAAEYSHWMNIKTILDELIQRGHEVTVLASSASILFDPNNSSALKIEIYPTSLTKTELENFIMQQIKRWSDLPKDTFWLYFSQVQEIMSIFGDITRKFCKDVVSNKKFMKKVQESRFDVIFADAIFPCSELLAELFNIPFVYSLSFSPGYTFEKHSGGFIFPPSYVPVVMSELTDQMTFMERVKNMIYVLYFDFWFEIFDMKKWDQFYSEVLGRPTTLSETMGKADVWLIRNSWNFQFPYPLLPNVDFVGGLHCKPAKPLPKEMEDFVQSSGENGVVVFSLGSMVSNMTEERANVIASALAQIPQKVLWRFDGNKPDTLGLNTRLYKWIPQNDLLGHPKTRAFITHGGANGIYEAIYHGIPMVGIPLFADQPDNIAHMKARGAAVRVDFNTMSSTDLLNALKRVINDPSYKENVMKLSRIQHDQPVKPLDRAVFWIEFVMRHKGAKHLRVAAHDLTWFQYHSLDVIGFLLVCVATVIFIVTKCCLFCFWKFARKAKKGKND

UGT1A1 [2] = target: T1, UGT1A1; test: Glucuronidation by recombinant human UGT1A1

| SMILES | Hydroxyl positions glucuronidated (UGT1A1 [1]) | Hydroxyl positions glucuronidated (UGT2B7) | Degree of regiospecificity (major glucuronide in bracket) (UGT1A1 [2]; UGT1A1, substrate 2.5 μM) | Degree of regiospecificity (major glucuronide in bracket) (UGT1A1 [2]; UGT1A1, substrate 2.5 μM, listed as 5,7,4’THFnol) | Degree of regiospecificity (major glucuronide in bracket) (UGT1A1 [2]; UGT1A1, substrate 10 μM) | Hydroxyl positions glucuronidated (UGT1A1 [2]; UGT1A1, substrate 10 μM) | Degree of regiospecificity (major glucuronide in bracket) (UGT1A1 [2]; UGT1A1, substrate 10 μM, listed as 5,7,4’THFnol) | Degree of regiospecificity (3-O vs 7-O) (UGT1A1 [2]; UGT1A1, substrate 35 μM) |
| --- | --- | --- | --- | --- | --- | --- | --- | --- |
| O=c1cc(-c2ccccc2)oc2cc(O)cc(O)c12 [5,7DHF, 5,7-dihydroxyflavone] | glucuronidated 7-O position only |  |  |  |  |  |  |  |
| O=c1c(O)c(-c2ccc(O)cc2)oc2cc(O)cc(O)c12 [5,7,4'THFnol, 3,5,7,4’-tetrahydroxyflavone] |  | glucuronidated only 7-O and 4’-O | Weak (7-O) | weakly preferred the glucuronidation of 7-O position | No (3-O, 7-O) | glucuronidated 3-O, 7-O and 4’-O | no regiospecific preference between 3-O and 7-O; also recorded: no regiospecificity | no regiospecificity |
